From US20040147595A1, “Biofilm degrading or sloughing compositions and methods” (priority 2001, published 2004)
Values joined by “and” are separate entries in the source; they are usually repeats but may differ in a detail not shown here. Identical values can stand only once. “Also recorded” adds a separate entry of the source. Like-named read-outs stand apart in the source and are kept apart here.

Columns and labels:
[1] = system: OHHL induced LuxR dependent expression of GFP; test: Quantitative furanone inhibition of the LuxR-PluxI-gfp(ASV) quorum sensor in E. coli MT102 (pJBA89); assay type: cell-based, Escherichia coli; conditions: gradient of furanone concentration lowering RFU to 40% versus OHHL concentration (5-100 nM)
From the text: To analyse the AHL antagonist activity of the halogenated furanones we tested the compounds for their ability to inhibit 3oxo-C6-HSL (OHHL) induced LuxR dependent expression of green fluorescent protein (GFP) from a Pgfp(ASV) fusion in the AHL monitor strain E. coli MT102 harbouring pJBA89 (Andersen et al., 2001).
The medium used is minimal ABT containing 0.5% glucose and 0.5% Casamino Acids. In growing cultures of the AHL monitor strain E. coli Mt102 (pJBA89) encoding […] and a P-gfp(ASV) fusion, GFP(ASV) is produced immediately upon OHHL addition specifically from the LuxR controlled P-gfp(ASV) fusion gene. The sensitivity is high (responsive to as little as 3 nm OHHL) and due to the instability built into the GFP (ASV) variant there is no background production of green fluoroscence (Andersen et al., 2001). GFP expression from the AHL monitor strain E. coli MT102 (pJBA89) and the control strain MT102 harbouring the lacl^q, Plas-gfp(ASV) IPTG inducible expression system pMH197 was quantified in the following way. Overnight cultures were diluted four fold in fresh medium and incubated for one hour at 30° C. while OHHL and furanone compounds in the required concentrations were mixed in the wells of microtiter dishes. […] When absolute values were required, green fluoroscence was measured on a fluorometer (model RF-1501; Shimadzu, Tokyo, Japan) act at an excitation wavelength of 475 nm and emission detection at 515 nm. To establish a correlation between the colour code of the ARGUS-50 captured images and green fluorescence, both colour and relative fluorescence units (RFU), were determined for a dilution series of an E. coli MT102 (pJBA89) culture which had been incubated with […]. […]
From the second plot, the furanone concentration reducing the relative activity to 40% (ID60) is determined for each OHHL concentration. […]
To enable easy comparison of the strength of the furanones, an inhibition index (IIX40) is calculated for each furanone compound. […]

[2] = system: las quorum sensing system (lasB-gfp(ASV) Plac-lasR); test: pMHLAS lasB-gfp(ASV) reporter in E. coli MT102; assay type: cell-based, Escherichia coli; conditions: for induction of the lasB-gfp(ASV) monitor by AHL compounds: E. coli with pMHLAS, AHLs 0 to 1000 nM
Protocol: (§1) AHL and furanone bioassay. Strains were grown exponentially in LB or ABt medium supplemented with 0.5% glucose at 30° C., shading at 250 rpm. At an optical density of approximately 0.8. the cultures were diluted and split into subcultures in glass culture flasks. AHLs and furanone 56 were added to appropriate concentrations and the cultures were further incubated at 30° C. under vigorous shaking. Culture samples were retrieved at various time intervals and green fluorescence was measured with a fluorometer (model RF-1501, Shimadzu, Tokyo, Japan) set at an excitation wavelength of 475 nm and emission wavelength of 515 nm. Relative fluorescence was calculated as green fluorescence normalized to 1 ml culture divided by the optical density (OD600 nm.
(§2) Initially, the lasB-gfp(ASV) translational fusion (OdDHL sensor) was thoroughly characterized with respect to its sensitivity and specificity. A culture of E. coli hosting the pMHLAS monitor plasmid was diluted and spilt into several subcultures which were then supplemented with AHLs at concentrations ranging from 0 to 1000 nM. […] When the pMHLAS based reporter system was hosted by PAO-JP2. the OdDHL concentration required for half-maximal activation of the lasB-gfp(ASV) fusion was 8 nM (data not shown). In single copy on the chromosome of PAO-JP2, the OdDHL concentration on required for half-maximal activation of lasB expression was approximately 250 nM (FIG. 2b). Green fluorescent cells were visible by epifluorescence microscopy at a minimal OdDHL concentration of 50 nM (FIG. 2c).
Effect of the furanone in a heterologous background. The direct regulation exerted by the las regulon on lasB expression is well described by numerous studies (Gambello & Iglewski, 1991: Pearson et al., 1994; Pearson et al., 1997). Regulatory complexity is added by the observation that the las quorum sensing circuit itself is subject to global regulators (Albus et al., 1997; Whiteley et al., 2000) and that lasB expression is also controlled by other regulators than LasR (Brumlik & Storey, 1992; Pesci et al., 1999; Schictman et al., 1995). It was, therefore, important to rule out that QSI effect, observed is not caused by furanone interaction with high levels of control. Since there is no AHL-based quorum sensing system present in Escherichia coli (Williams et al., 2000), this bacterium provides an unbiased and well-defined genetic background for studying the direct effects of the furanone on the P. aeruginosa las quorum sensing system. We repeated the above-described experiments using E. coli MT102 as a heterologous host for the reporter system. […] This is likely to be attributed to the increased copy number of the reporter plasmid.

[3] = system: lasB-gfp(ASV) reporter in P. aeruginosa PAO-JP2 biofilm; test: OdDHL-mediated signalling in PAO-JP2 flowcell biofilm, lasB-gfp(ASV) reporter, CSLM; assay type: cell-based, Pseudomonas aeruginosa
Protocol: P. aeruginosa biofilms. Biofilms were grown at 30° C. in three-dimensional flow cells (Christensen et al., 1999) with individual channel dimensions of 0.3×4×40 mm supplied With ABt minimal medium supplemented with 2% LB. The flow system was assembled and prepared as described by Christensen et al. (1999). The substratum consisted of a microscope glass coverslip (Knittel 24×50 mm st1, Knittel Glaser, Braunschweig, Germany). Cultures for inoculation of the flow channels were prepared in the following way: P. aeruginosa strains were streaked on LB plates with the appropriate antibiotics and incubated for 24 h at 37° C. From each plate a single colony was used for inoculation of 10 ml ABt with 10% LB. The cultures were grown at, 30° C. for 18 h before they were diluted to an OD600 nm of 0.1 in sterile 0.9% NaCl and used for inoculation of the flow channels. Medium flow was kept at a constant rate of 3 mL/h, equivalent to a mean flow velocity of 0.7 mm/s, using a Watson-Marlow 205S peristaltic pump (Watson-Marlow, Falmouth, England). Biofilms were grown for 24 hours before being shifted to media containing AHL and furanone.
Scanning confocal laser microscopy (SCLM). Microscopic inspection and image acquisition were performed an a scanning confocal laser microscope (model TCS4D, Leica Lasertechnik GmbH, Heldelberg, Germany) equipped with a 63×/1.32-0.6 oil objective. The microscope was equipped with a motorized and programmable xy-stage, which was used for monitoring single colonies during the biofilm experiments. At the beginning of each online experiment, the microscope was programmed to track single randomly selected microcolonies; the sensitivity of photo multipliers and the laser intensity were adjusted and thereafter kept constant through out the duration of the experiments. Image scanning was carried out using the 488 nm and 568 nm lines of an Ar/Kr laser for detection of Gfp and Rfp, respectively. Visualization of captured images was performed using the IMARIS software package (Bitplane AG, Zúrich, Switzerland) running on a Silicon Graphics Indigo 2 workstation (Silicon Graphics, Mountain View, Calif. USA).
Inhibition of AHL-mediated signalling in P. aeruginosa biofilms. The lasB-gfp(ASV) reported was integrated into the chromosome of PAO-JP2 to ensure stable segregation and a constant gene dosage of the reported system. The strain was growth in flowcells for 24 hours in ABt-LB medium and a 10-15 μm thick biofilm developed. The media flow was subsequently switched to ABt-LB medium containing the appropriate AHL and furanone concentrations. The development of green fluorescence was monitored online by CSLM for 8 hours.

[4] = system: las quorum sensing system (lasB-gfp(ASV) expression); test: AHL and furanone bioassay, PlasB-gfp(ASV) Plac-lasR reporter in planktonic PAO-JP2; assay type: cell-based, Pseudomonas aeruginosa
Protocol: as §1, §2
Noteworthy, the inhibitory effect of furanone 56 was relieved at increased concentrations of OdDHL.

lasB promotor = conditions: Gray et al., 1994; cited from earlier work
chitinase = test: Virulence factor production: chitinase activity of PAO-JP2 supernatant; assay type: cell-based, Pseudomonas aeruginosa
Protocol: The chitinase activity assay was performed as described by the assay manufacturer (Loewe Biochemica, Sauerlach, Germany). Supernatant (560 μl) of cultures prepared as described for the elastase assay was mixed with carboxymethyl-chitin-remazol brilliant violet (200 μl) and sodium phosphate buffer (40 μl, 1 M, pH 7.5). The reaction mixture was incubated for 18 h at 40° C. in a waterbath. The reaction was stopped by addition of HCl (200 μl, 2 N) and kept for 15 min on ice. After centrifugation (10 min at 15000 rpm), the absorbance (OD550 nm) of the supernatant was measured. The relative chitinase activity was calculated as OD550 nm/OD600 nm normalized to 1 ml supernatant.

elastase = test: Virulence factor production: elastase (proteolytic) activity of PAO-JP2 supernatant; assay type: cell-based, Pseudomonas aeruginosa
Protocol: Measurements of virulence factors. PAO-JP2 was grown in LB medium at 37° C. and shaking at 250 rpm to an OD600 nm of 1.0. The culture was divided into seven subcultures, which were added 0, 70, or 1000 nm OdDHL and 0. 3. or 5 μg/ml furanone 58. The cultures were grown for an additional 4 hours at 37° C. The proteolytic activity was measured as described by Ayora & G{overscore (o)}tz (1994). Azocasein (250 μl 2%, Sigma, St. Louis, Mo.) in 50 mM Tris/HCl and steril-filtered (Ø 0.2 μm) supernatant (150 μl) were incubated for 4 h at […] After precipitation of undigested substrate with trichloroacetic acid (1.2 ml 10%) for 15 minutes, followed by 10 minutes centrifugation at 1000 rpm, NaOH (1.4 ml 1 M) were added to the supernatant. The relative protease activity was measured as the absorbance at 440 nm (OD440 nm) of the supernatant divided by the optical density of the culture (OD600 nm ).

lasB promoter = conditions: Pearson et al (1995), pKDT17 in PAO-R1; read-out: OdDHL required for half-maximal activation of a similar construct; cited from earlier work
P. aeruginosa = conditions: cited from earlier work

Question: With `CCCCC1=C(Br)/C(=C/Br)OC1=O` [Compound 2] as the compound, how does the “inhibition index (IIX40)” value [1] read?
Answer: 0.75 mole of furanone per mmole of

Question: Which “induction of the lasB-gfp(ASV) monitor by AHL compounds” value (from here on “induction of the lasB-gfp(ASV) monitor”) [2] does the source give for `CCCCCCCC(=O)CC(=O)N[C@H]1CCOC1=O` [ODHL, N-[3-oxo-decanoyl]-L-homoserine lactone] here?
Answer: activated lasB-expression albelt at a lower level; also recorded: less efficient

Question: Which “induction of the lasB-gfp(ASV) monitor” value [2] does the source give for `CCCCCC(=O)CC(=O)N[C@H]1CCOC1=O` [OOHL, N-[3-oxo-octanoyl]-L-homoserine lactone] here?
Answer: less efficient

Question: Which “lowest OdDHL concentration inducing lasB promoter activity in PAO-JP2 biofilms” value [3] does the source give for `CCCCCCCCCC(=O)CC(=O)N[C@H]1CCOC1=O` [OdDHL, N-[3-oxo-dodecanoyl]-L-homoserine lactone] here?
Answer: 20 nM

Question: And the “expression of the lasB-gfp(ASV) reporter fusion in biofilm” value ([3]; 40 nm OdDHL)?
Answer: induced and visible in the single cells within four hours

Question: What about the “minimal OdDHL concentration at which green fluorescent cells were visible by epifluorescence microscopy” value ([4]; mini-Tn5 reporter in PAO-JP2) of the same compound?
Answer: 50 nM

Question: What about the EC50 ([4]; pMHLAS based (plasmid) reporter hosted by PAO-JP2, data not shown, read-out: OdDHL concentration required for half-maximal activation of the lasB-gfp(ASV) fusion) of the same compound?
Answer: 8 nM

Question: And the EC50 ([4]; reporter in single copy on the chromosome of PAO-JP2, read-out: OdDHL concentration required for half-maximal activation of lasB expression)?
Answer: ~250 nM and 250 nM

Question: And the “lowest OdDHL concentration detected by the reporter” value ([4]; single chromosomal copy, data not shown)?
Answer: 20 nM

Question: And the “induction of the lasB-gfp(ASV) monitor” value [2]?
Answer: most efficient inducer

Question: And the “increased responsiveness to OdDHL of the E. coli strain harboring the lasB reporter” value ([2]; compared with the PAO-JP2 reporter)?
Answer: approx. 10 fold

Question: What about the “induction of the promotor in response to OdDHL addition” value (lasB promotor) of the same compound?
Answer: 63 fold

Question: And the chitinase activity (chitinase; PAO-JP2, 70 nm OdDHL)?
Answer: induced

Question: What about the “chitinase activity in furanone-treated culture” value (chitinase; addition of 1 μM OdDHL) of the same compound?
Answer: entirely restored

Question: What about the elastase activity (elastase; PAO-JP2, 70 nm OdDHL) of the same compound?
Answer: induced

Question: What about the “elastase activity in furanone-treated culture” value (elastase; addition of 1 μM OdDHL) of the same compound?
Answer: entirely restored

Question: And the EC50 (lasB promoter)?
Answer: 1000 nM

Question: With `NC[C@H]1O[C@H](O[C@H]2[C@H](O)[C@@H](O[C@H]3O[C@H](CO)[C@@H](O)[C@H](N)[C@H]3O)[C@H](N)C[C@@H]2N)[C@H](N)C[C@@H]1O` [tobramycin] as the compound, how does the “resistance in the biofilm form compared to the planktonic cells” value (P. aeruginosa) read?
Answer: 50,000 times
